Source: article PMC8065212, “The active form of the influenza cap-snatching endonuclease inhibitor baloxavir marboxil is a tight binding inhibitor” (The Journal of Biological Chemistry, 2021)
Where “and” joins values, the source holds several entries; their conditions need not be identical. Identical values can stand only once. Entries after “also recorded” stand apart in the source; their conditions may differ.

Legend:
[1] = target: T1, FluB-ht PA I38T (Influenza B virus, UniProt Q5V8Z9, I38T); format: biochemical, Influenza B (B/Memphis/13/03)
[2] = target: T1, FluB-ht PA I38T; format: biochemical, Influenza B (B/Memphis/13/03); remark: listed apart in the source
[3] = system: FluB-ht PA I38T; format: biochemical, Influenza B (B/Memphis/13/03)
[4] = target: T1, FluB-ht PA I38T; format: biochemical, Influenza B (B/Memphis/13/03); remark: listed apart in the source
[5] = system: influenza B I38 mutants; conditions: cited from earlier work
[6] = system: influenza A I38 mutants; conditions: cited from earlier work
[7] = system: influenza virus; conditions: cited from earlier work

SMILES | inhibition of endonuclease activity by order of addition [1] | slope of plot of IC50 versus enzyme concentration [2] | decrease in inhibition (difference in IC50), PA I38T versus WT [3] | increase of Ki^app, PA I38T with respect to WT [3] [fold] | BXA concentration at which an effect of preincubation is observed [4] [nM] | effect of preincubation length on activity [4] | increase in EC50 values with mutations at position I38 [5] | increase in EC50 values with mutations at position I38 [6] | increase in EC50 values of mutant viruses [7]
O=C1c2c(O)c(=O)ccn2N([C@@H]2c3ccccc3SCc3c2ccc(F)c3F)[C@@H]2COCCN12 [BXA, baloxavir acid] | no inhibition; also recorded: not observed regardless of the order of addition | 0.58 and ~0.5 | approximately threefold decrease | ~18 | 600 | negligible effects; also recorded: time-independent | – | – | –
COC(=O)OCOc1c2n(ccc1=O)N([C@@H]1c3ccccc3SCc3c1ccc(F)c3F)[C@@H]1COCCN1C2=O [BXM, Baloxavir marboxil] | – | – | – | – | – | – | up to tenfold | up to 50 fold | up to 50 fold
